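48-hour exposure; five concentrations; linearly interpolated endpoints. At the GI50, growth is halved. At the TGI there is no net growth.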

The results in this text go back to PubChem BioAssay (NCI).

Holding throughout (assay): NCI tumour cell line growth inhibition, 48 h
Experiment [1] has as its system KM12 colon.
For experiment [2], the system named is PC-3 prostate.
Experiment [3] deals with CAKI-1 renal.
The subject of experiment [4] is MCF7 breast.
Experiment [5] relates to ACHN renal.
For experiment [6], the system named is K-562 leukemia.
Experiment [7] has as its system SK-MEL-5 melanoma.
The test system of experiment [8] is 786-0 renal.
For experiment [9], the system named is EKVX NSCLC.
In experiment [10] the test system is M14 melanoma.

Regarding `C(=C\c1ccncc1)/c1ccncc1`, the GI50 in experiment [1], in [2], in [3], in experiment [4], in experiment [5] and in experiment [6] was > 100000 nM in each case. For the same compound, the GI50 in [7], in experiment [8], in experiment [9] and in experiment [10] was > 100000 nM each time. For the same compound, the TGI was > 100 µM in experiment [1]; > 100000 nM in [2]; > 100000 nM in experiment [3]; > 100000 nM in experiment [4]; > 100000 nM in [5]; > 100000 nM in experiment [6]. Moreover, the TGI was > 100000 nM in [7], > 100000 nM in [8], > 100 µM in experiment [9] and > 100000 nM in experiment [10].
`C[C@@H](CS[As](C)C)C(=O)N1CCC[C@H]1C(=O)O`: the GI50 in experiment [1] was 1900 nM; in experiment [2], 284 nM; in [3] it was 97.7 nM; in experiment [4] it was 249 nM; in experiment [5], 113 nM; in [6], 51 nM. For the same compound, the GI50 in [7] is 152 nM; in experiment [8], 75.2 nM; in experiment [9], 723 nM; in experiment [10] it was 105 nM. The TGI in experiment [1] turned out to be 12.5 µM; in experiment [2], 1250 nM; in experiment [3], 409 nM; in experiment [4], 2030 nM; in experiment [5] it was 1200 nM; in experiment [6], 1100 nM. The TGI came to 436 nM in experiment [7], 1010 nM in [8], 8.53 µM in experiment [9] and 829 nM in [10].
